Results as given in patent publication US9139658B2, “Medicament for treatment cancer” (SUMITOMO DAINIPPON PHARMA CO., LTD., priority 2000, dated 2015).
Structures can show the parent of a compound that is named as a salt. Where two headings read alike, the source gives them in different places.

How the values were obtained:
[1] = Cardiotoxicity test using monkey (combination with Herceptin); conditions: rhesus monkey, intravenous, amrubicin hydrochloride at two times the dosage of doxorubicin hydrochloride
Protocol: The administration of amrubicin hydrochloride at a dosage of two times of doxorubicin hydrochloride is carried out on the basis of therapeutic dosages of both agents.
Into vein of a rhesus monkey, is administered doxorubicin at a dose of 2.92 mg/kg (35 mg/m^2), 7-8 times with three weeks intervals.
Accordingly, the agent-administered groups are set to be as follows:
1) agent non-administered group
2) doxorubicin hydrochloride 2-4 mg/kg, iv, 8q3W
4) amrubicin hydrochloride 4-8 mg/kg, iv, 8q3W
On 140-150 days post initiation of the administration, the animal is dissected, and histopathological diagnosis of the heart is carried out. Judging from the comparison of impairment of the myocardial cells, cardiotoxicity is evaluated.

[2] = tested on: Human breast cancer cell line BT-474; assay: Evaluation of combination effects in vitro (WST-1 proliferation, Combination Index by Pegram method); assay type: cell-based; conditions: for CI value (Combination Index) / D1 (concentration of test agent in combination required for fa): combination with Herceptin; for Df1 (concentration of test agent as single agent required for fa): fa 0.9, BT-474; for combination effect with Herceptin, overall evaluation by Combination Index: summary of Examples 1-3, BT-474
Protocol: The effects of the combined use were evaluated by calculating a Combination Index (CI) following a method of Pegram et al. (M. Pegram et al., Oncogene, 18, 2241-2251 (1999)). Human breast cancer cell line BT-474 (a cell line in which HER2 is highly expressed) was obtained from ATCC (American Type Culture Collection). In a medium comprising equal amount of D-MEM (Dulbecco's Modified Eagle Medium) medium and F-12 (Nutrient Mixture F-12) medium which further contains 2.5 mM L-glutamine, 10% bovine fetal serum (FCS) and 2.5 μg/ml amphotericin B, human breast cancer cell line BT-474 was subcultured. The culture was carried out in an incubator with 5% CO2 at 37° C. This medium was also used in the following experiments. HerceptinTM was dissolved in a dissolution solution attached thereto to prepare a 21 mg/ml stock solution. Thereafter, the solution was used after 2 fold serial dilutions with the medium. […] Doxorubicin hydrochloride was obtained from Kyowa Hakko Kogyo Co., Ltd. A 2 mg/ml solution was prepared by adding 5 ml of sterile water to a 10 mg vial, and the solution was used. Human breast cancer cell line BT-474 on subculture were subjected to a trypsin treatment, suspended in the medium, and seeded on a 96-well plate. The seeding density was set to be 1×10^4 cells/0.1 ml/well. After seeding, cells were cultured overnight in an incubator with 5% CO2 at 37° C. (Day 0). […] The experiments were conducted with n=3 for the agent-treated group, and with n=6 for the non-treated (control) group. Until Day 4, culture was conducted in an incubator with 5% CO2 at 37° C. […] Thereafter, culture was conducted in an incubator with 5% CO2 at 37° C. for 2-4 hours. Absorbance of the culture was then measured with MICROPLATE READER Model 3550-UV (BioRad), and living cell number was measured. […] CI and inhibition rate of proliferation fa were calculated as described above.

[3] = rabbit chronic experimental model, compared with doxorubicin; cited from earlier work
[4] = tested on: topoisomerase II; conditions: at a concentration which leads to 50% inhibition of cell proliferation; cited from earlier work
[5] = metabolite obtained by reduction in vivo; cited from earlier work
[6] = clinical use; cited from earlier work
[7] = compared with amrubicin and amrubicinol; cited from earlier work
[8] = in vitro experiment, Pegram et al. 1999; cited from earlier work
[9] = rhesus monkey, iv 2.92 mg/kg (35 mg/m^2), 7-8 times with three weeks intervals, 140-150 days post initiation; cited from earlier work
[10] = dosage ratio 40:1, fa 0.9, BT-474
[11] = dosage ratio 2:1, fa 0.9, BT-474
[12] = dosage ratio 4:1, fa 0.9, BT-474
[13] = dosage ratio 8:1, fa 0.9, BT-474
[14] = dosage ratio 2:1, fa 0.9, BT-474, CI<1 synergistic, CI=1 additive

Row | Structure (SMILES) | cardiotoxicity in combination with Herceptin [1] | Df1 (concentration of test agent as single agent required for fa) [2] [µg/mL] | combination effect with Herceptin, overall evaluation by Combination Index [2] | CI value (Combination Index) [2, 11] | D1 (concentration of test agent in combination required for fa) [2, 11] [µg/mL] | combination effect with Herceptin judged from CI value [2, 14] | stabilization of cleavable complex via topoisomerase II [4] | further results
1 | CC(=O)[C@]1(N)Cc2c(O)c3c(c(O)c2[C@@H](O[C@H]2C[C@H](O)[C@H](O)CO2)C1)C(=O)c1ccccc1C3=O [Amrubicin hydrochloride, (+)-(7S,9S)-9-acetyl-9-amino-7-[(2-deoxy-β-D-erythro-pentopyranosyl)oxy]-7,8,9,10-tetrahydro-6,11-dihydroxy-5,12-naphthacenedione] | cardiotoxicity is not presented | 7.542 | marked synergistic effects |  |  |  |  | CI value (Combination Index) [2, 10]: 0.17; D1 (concentration of test agent in combination required for fa) [2, 10]: 1.267 µg/mL; combination effect with Herceptin judged from CI value [2, 10]: synergistic effect
2 | CC(O)[C@]1(N)Cc2c(O)c3c(c(O)c2[C@@H](O[C@H]2C[C@H](O)[C@H](O)CO2)C1)C(=O)c1ccccc1C3=O.Cl (stereo partly drawn) [Amrubicinol hydrochloride] |  | 0.671 | marked synergistic effects | 0.38 | 0.239 | synergistic effect |  | CI value (Combination Index) [2, 12]: 0.33; D1 (concentration of test agent in combination required for fa) [2, 12]: 0.212 µg/mL; CI value (Combination Index) [2, 13]: 0.42; D1 (concentration of test agent in combination required for fa) [2, 13]: 0.279 µg/mL; combination effect with Herceptin judged from CI value ([2]; dosage ratio in the range of 2:1-8:1, fa 0.9, BT-474): synergistic effect
3 | COc1cccc2c1C(=O)c1c(O)c3c(c(O)c1C2=O)C[C@@](O)(C(=O)CO)C[C@@H]3O[C@H]1C[C@H](N)[C@H](O)[C@H](C)O1 [Doxorubicin hydrochloride, reference compound] | cardiotoxicity is strongly presented | 0.434 |  | 0.92 | 0.373 | additive effect |  | 
4 | CC(=O)[C@]1(N)Cc2c(O)c3c(c(O)c2[C@@H](O[C@H]2C[C@H](O)[C@H](O)CO2)C1)C(=O)c1ccccc1C3=O [amrubicin, (+)-(7S,9S)-9-acetyl-9-amino-7-[(2-deoxy-β-D-erythro-pentopyranosyl)oxy]-7,8,9,10-tetrahydro-6,11-dihydroxy-5,12-naphthacenedione] |  |  |  |  |  |  | sufficiently stabilize a cleavable complex | cardiotoxicity [3]: far less than that of doxorubicin
5 | CC(O)[C@]1(N)Cc2c(O)c3c(c(O)c2[C@@H](O[C@H]2C[C@H](O)[C@H](O)CO2)C1)C(=O)c1ccccc1C3=O (stereo partly drawn) [amrubicinol] |  |  |  |  |  |  | sufficiently stabilize a cleavable complex | anti-cancer activity of metabolite compared with amrubicin [5]: stronger anti-cancer activity
6 | COc1cccc2c1C(=O)c1c(O)c3c(c(O)c1C2=O)C[C@@](O)(C(=O)CO)C[C@@H]3O[C@H]1C[C@H](N)[C@H](O)[C@H](C)O1 [doxorubicin] |  |  |  |  |  |  | does not stabilize the cleavable complex | cardiotoxicity in combination with Herceptin [6]: cardiotoxicity is developed at a high frequency; intercalation activity [7]: about ten times stronger than those of amrubicin and amrubicinol; combination effect with Herceptin [8]: additive effects; histopathological observation of the heart [9]: vacuolation of myocardial cells
